Five compounds from ChEMBL document CHEMBL3046756, “Synthesis, anti-inflammatory, and structure antioxidant activity relationship of novel 4-quinazoline” (Med Chem Res, 2013) can be followed below.

Common to all, as to assay type: functional
Experiment [1] is described as follows: Antioxidant activity assessed as inhibition of linoleic acid peroxidation at 100 mg/l after 24 hr by spectrophotometric analysis.
Experiment [2] has as its system Radical scavenging activity. Kind of experiment: Antioxidant activity assessed as DPPH free radical scavenging activity at 0.06 mg/ml after 5 to 60 min by spectrophotometric analysis.
The nature of experiment [3]: Antioxidant activity assessed as reduction of Fe3+ to Fe2+ at 20 to 140 ug/ml after 30 min by spectrophotometric analysis.
The test system of experiment [4] is Rattus norvegicus. The experiment is described as follows: Antipyretic activity in Wistar Rattus norvegicus (rat) assessed as decrease in Brewer's yeast solution-induced hyperthermia at 20 mg/kg, po measured after 3 hr (reference value: 36.8 +/- 1.9 degC).
Experiment [5] concerns Rattus norvegicus. The experiment is described as follows: Antipyretic activity in Wistar Rattus norvegicus (rat) assessed as decrease in Brewer's yeast solution-induced hyperthermia at 20 mg/kg, po measured after 2 hr (reference value: 37 +/- 1.7 degC).
For experiment [6], the system named is Rattus norvegicus. The experiment is described as follows: Antipyretic activity in Wistar Rattus norvegicus (rat) assessed as decrease in Brewer's yeast solution-induced hyperthermia at 20 mg/kg, po measured after 1 hr (reference value: 37 +/- 3.55 degC).
Experiment [7] concerns Rattus norvegicus. The experiment is described as follows: Anti-inflammatory activity in Wistar Rattus norvegicus (rat) assessed as inhibition of carrageenan-induced paw edema at 30 mg/kg, po administered 30 min prior to carrageenan challenge measured at 60 min relative to untreated control.
Experiment [8] relates to Rattus norvegicus. Kind of experiment: Anti-inflammatory activity in Wistar Rattus norvegicus (rat) assessed as inhibition of carrageenan-induced paw edema at 30 mg/kg, po administered 30 min prior to carrageenan challenge measured at 30 min post carrageenan challenge relative to untreated control.
The subject of experiment [9] is Rattus norvegicus. The experiment is described as follows: Anti-inflammatory activity in Wistar Rattus norvegicus (rat) assessed as inhibition of carrageenan-induced paw edema at 30 mg/kg, po administered 30 min prior to carrageenan challenge measured at 180 min relative to untreated control.
The test system of experiment [10] is Rattus norvegicus. The experiment is described as follows: Anti-inflammatory activity in Wistar Rattus norvegicus (rat) assessed as inhibition of carrageenan-induced paw edema at 30 mg/kg, po administered 30 min prior to carrageenan challenge measured at 120 min relative to untreated control.
The test system of experiment [11] is Rattus norvegicus. Kind of experiment: Anti-inflammatory activity in Wistar Rattus norvegicus (rat) assessed as inhibition of carrageenan-induced paw edema at 30 mg/kg, po administered 30 min prior to carrageenan challenge measured at 90 min relative to untreated control. Background: The carrageenan paw model is a standard test of acute inflammation.
Experiment [12] concerns Rattus norvegicus. The experiment is described as follows: Effect on GST level in Wistar Rattus norvegicus (rat) liver measured CDNB conjugated per min per mg of protein at 30 mg/kg, po after 10 days (reference value: 0.86 +/- 0.08 mmol).
Experiment [13] deals with Rattus norvegicus. The experiment is described as follows: Effect on glutathione reductase level in Wistar Rattus norvegicus (rat) liver measured NADPH oxidized per min per mg of protein at 30 mg/kg, po after 10 days (reference value: 4.19 +/ 0.42 nmol).
Experiment [14] relates to Rattus norvegicus. Kind of experiment: Effect on gamma-glutamyl transferase level in Wistar Rattus norvegicus (rat) serum at 30 mg/kg, po qd after 10 days (reference value: 0.57 +/- 0.04 U/I).
Experiment [15] concerns Rattus norvegicus. The experiment is described as follows: Effect on ALP level in Wistar Rattus norvegicus (rat) serum at 30 mg/kg, po qd after 10 days (reference value: 39.5 +/- 3.86 U/I).
Experiment [16] concerns Rattus norvegicus. The experiment is described as follows: Effect on SGPT level in Wistar Rattus norvegicus (rat) at 30 mg/kg, po qd after 10 days (reference value: 38.77 +/- 4.25 U/I).
Experiment [17] relates to Rattus norvegicus. Kind of experiment: Effect on SGOT level in Wistar Rattus norvegicus (rat) at 30 mg/kg, po qd after 10 days (reference value: 145.50 +/- 13.86 U/I).
For experiment [18], the system named is Rattus norvegicus. Kind of experiment: Effect on glutathione peroxidase level in Wistar Rattus norvegicus (rat) liver measured GSH oxidized per min per mg of protein at 30 mg/kg, po after 10 days (reference value: 47.47 +/- 3.86 mmol).
Experiment [19] has as its system Rattus norvegicus. The experiment is described as follows: Effect on GSH level in Wistar Rattus norvegicus (rat) liver measured per mg of protein at 30 mg/kg, po after 10 days (reference value: 1.84 +/- 0.092 mg).
Experiment [20] relates to Rattus norvegicus. Kind of experiment: Effect on TBARS level in Wistar Rattus norvegicus (rat) serum at 30 mg/kg, po qd after 10 days (reference value: 0.82 +/- 0.073 nmol/ml).
Experiment [21] concerns Rattus norvegicus. Kind of experiment: Effect on LDH level in Wistar Rattus norvegicus (rat) serum at 30 mg/kg, po qd after 10 days (reference value: 249.89 +/- 13.26 U/I).

Active and inactive are the calls of the source. The rule behind the calls is not given here.

Regarding `Cc1c(C)c2c(c(C)c1O)CCC(C)(C(=O)O)O2` (centres undefined), in experiment [1], the inhibition result was “Active”. Also, in experiment [2], the outcome was Active.
As for `Cc1c(C)c2c(c(C)c1O)CC[C@@](C)(CCC[C@H](C)CCC[C@H](C)CCCC(C)C)O2`, the inhibition result in experiment [1] was “Active”. Moreover, the outcome in experiment [3] was Active.
For `CC(=O)Nc1ccc(O)cc1` [ACETAMINOPHEN], the results for the T in the experiment on Rattus norvegicus [4], in the experiment with Rattus norvegicus [5] and in the experiment with Rattus norvegicus [6] were 36.4 °C, 36.8 °C and 37 °C, respectively.
On to `Cc1cc(C(C)(C)C)c(O)c(C(C)(C)C)c1`, for which the inhibition result in experiment [1] is “Active”. In addition, in experiment [3], the result was Active.
In the case of `O=C([O-])Cc1ccccc1Nc1c(Cl)cccc1Cl.[Na+]` [DICLOFENAC SODIUM], the inhibition in vivo at 30 mg/kg in the experiment with Rattus norvegicus [7] came to 82%; in the experiment with Rattus norvegicus [8], 41.3%; in the experiment with Rattus norvegicus [9] it was 100%; with Rattus norvegicus [10] it was 92.8%; in the experiment with Rattus norvegicus [11], 86.3%. Also, the Activity in the experiment on Rattus norvegicus [12] is 0.63 mmol; in the experiment with Rattus norvegicus [13] it was 3.28 nmol; in the experiment with Rattus norvegicus [14], 1.37 U/L; with Rattus norvegicus [15], 75.25 U/L; in the experiment on Rattus norvegicus [16], 84.43 U/L; in the experiment with Rattus norvegicus [17], 201.27 U/L. The Activity turned out to be 32.09 mmol in the experiment with Rattus norvegicus [18], 0.79 mg in the experiment with Rattus norvegicus [19], 1.41 nmol/mL in the experiment with Rattus norvegicus [20] and 320.69 U/L with Rattus norvegicus [21].

Usually inhibition in vivo stands for the share of the control response that was lost under treatment.
